Data taken from patent US20100048732A1, “Method of mediating Airway Smooth Muscle Construction Due to Airway Irritation” (priority 2006, published 2010).
Starred links: 1 amine or outer side, 2 acyl side, 3 side chain; linkers in the order of their positions; H or OH if unused. Positions of bridges follow the written chain, without caps; N, C: chain ends. Non-standard residues stand in square brackets, D forms with d. Residues, ends and D or L forms follow the SMILES beside them. No end group written: not given here. *: point of attachment. X2 = CN(/C(=C\c1ccc(O)cc1)C(=O)[*:2])[*:1]; X1 = CCCCCc1ccccc1CCC(=O)*

Experiments:
[1] = test system: guinea pig airway rings; conditions: cited from earlier work
[2] = test system: substance P contraction, guinea pig tracheal rings; assay: Relaxation of substance P-induced contraction in guinea pig tracheal rings; format: cell-based; conditions: FIG. 2, FIG. 3E-F, FIG. 8
Experimental: (§1) Substance P is an endogenous tachykinin released in airways by C fibers during irritation of the airway.
(§2) Propofol is known to have preferential protective airway effects during intubation compared to other intravenous anesthetics (3, 4). To determine if two other commonly used intravenous anesthetics have similar protective airway effects on contractile challenges, etomidate and ketamine were evaluated to determine their ability to relax airway smooth muscle contraction induced by NANC nerve stimulation (FIGS. 3A and B), cholinergic nerve stimulation (FIGS. 3C and D), and exogenous addition of substance P (FIGS. 3E and F) to isolated guinea pig tracheal rings in organ baths.
Propofol's effect as an anesthetic is modulated by an allosteric potentiation of GABA at GABAA receptors in the brain. However, we are unaware of any report that GABAA receptors have been found on airway smooth muscle.

[3] = test system: substance P contraction, human tracheal rings; assay: Substance P contraction of human tracheal rings in organ baths and its relaxation; format: cell-based; conditions: human tracheal rings in organ baths; for relaxation of substance P contraction in human tracheal rings: cumulative concentrations, FIG. 5, FIG. 9
Experimental: (§3) (FIG. 9.) To determine if the mechanism of propofol's relaxation of a tachykinin response was mediated by GABAA receptors, the ability of an antagonist of GABAA receptors should inhibit propofol's response was evaluated. […] (FIG. 10.)

[4] = test system: GABAA receptors; conditions: FIG. 10
Experimental: as §3

[5] = test system: endothelin-1 induced contractions, guinea pig tracheal rings; conditions: within clinically relevant concentrations, FIG. 4
Experimental: (§5) To determine if propofol and thiopental have the ability to relax histamine or endothelial induced contractions, propofol and thiopental were evaluated at clinical and supra-clinical concentrations to determine their ability to relax histamine or endothelin-1 induced contractions in guinea pig tracheal rings.

[6] = test system: histamine induced contractions, guinea pig tracheal rings; conditions: within clinically relevant concentrations, FIG. 4
Experimental: as §5

[7] = test system: acetylcholine-induced contractions, isolated rings of guinea pig trachea; conditions: isolated guinea pig tracheal rings; clinically significant/relevant concentrations; FIG. 1
From the text: Intravenous anesthetics were compared for their ability to relax airway smooth muscle contractions in isolated rings of guinea pig trachea in response to acetylcholine.

[8] = test system: NANC contractions, epithelium-denuded guinea pig tracheal rings; assay: Relaxation of NANC (C fiber, neurally liberated tachykinin) contractions in guinea pig tracheal rings; format: cell-based; conditions: clinically relevant concentrations, FIG. 2, FIG. 3A-B
Experimental: as §1, §2

[9] = test system: cholinergic nerve mediated contractions, guinea pig tracheal rings; assay: Relaxation of cholinergic nerve mediated contractions in guinea pig tracheal rings; format: cell-based; conditions: clinically relevant concentrations, FIG. 1, FIG. 3C-D
Experimental: To distinguish between the two possibilities, intravenous anesthetics were evaluated for their effects on attenuating bronchoconstriction induced by activation of the cholinergic nerves (liberating acetylcholine). […] (FIG. 1.)
as §2

[10] = test system: L-type calcium channels, intracellular calcium changes, inositol phosphate synthesis in airway smooth muscle; conditions: above clinically achieved concentrations; cited from earlier work
[11] = test system: methacholine induced bronchoconstriction; conditions: sheep; delivery via the bronchial artery; cited from earlier work
[12] = test system: contractile responses from acetylcholine, histamine, and endothelin in airway tissues; conditions: airway tissues from humans and animal models; cited from earlier work
[13] = test system: permeabilized canine tracheal smooth muscle cells; conditions: absence or presence of muscarinic receptor activation, propofol 270 μM; cited from earlier work
[14] = test system: vagal nerve induced bronchospasm; conditions: sheep; delivery via the bronchial artery; cited from earlier work
[15] = test system: methacholine, histamine-induced (neural component) or vagal nerve-induced bronchoconstriction; conditions: neural component of histamine-induced, or vagal nerve-induced bronchoconstriction; cited from earlier work
[16] = test system: NK1-induced contraction, guinea pig tracheal rings; conditions: guinea pig tracheal rings stimulated with acetyl-substance P; FIG. 6A
From the text: (§4) Guinea pig tracheal rings stimulated with acetyl-substance P to produce an NK1-induced contraction (FIG. 6A) and with neurokinin A to produce an NK2-induced contraction (FIG. 6B).

[17] = test system: NK2-induced contraction, guinea pig tracheal rings; conditions: guinea pig tracheal rings stimulated with neurokinin A; FIG. 6B
From the text: as §4

[18] = test system: bradykinin induced bronchoconstriction; conditions: asthmatics; cited from earlier work

NCc1cc(=O)[nH]o1 [muscimol]
effect on acetylcholine-induced contraction [1]: failed to show an effect | effect on basal tone [1]: failed to show an effect | attenuation/relaxation of substance P (exogenous tachykinin) contraction [2]: dose-dependently relaxed | relaxation of substance P contraction in human tracheal rings [3]: dose dependently relaxed

COc1ccc(-c2ccc(=N)n(CCCC(=O)O)n2)cc1 [Gabazine]
reversal of propofol mediated relaxation of a substance P contraction [4]: able to reverse propofol mediated relaxation

CCCC(C)C1(CC)C(=O)NC(=S)NC1=O (stereo not shown) [thiopental]
relaxation of endothelin-1 induced contraction [5]: neither anesthetic effected the spontaneous relaxation | relaxation of histamine induced contraction [6]: neither anesthetic effected the spontaneous relaxation | relaxation of acetylcholine-induced contractions [7]: dose-dependently relaxed

CNC1(c2ccccc2Cl)CCCCC1=O (stereo not shown) [ketamine]
attenuation/relaxation of substance P (exogenous tachykinin) contraction [2]: failed to relax | attenuation/relaxation of NANC contractions (neurally liberated tachykinins) [8]: failed to relax | relaxation of cholinergic nerve mediated contractions [9]: failed to relax

CC(C)c1cccc(C(C)C)c1O [propofol, 2,6-diisopropylphenol]
propofol concentration needed for effects on L-type calcium channels, intracellular calcium or inositol phosphate signaling [10]: > 100 µM | propofol dose attenuating methacholine induced bronchoconstriction [11]: 3 mg/min | relaxation of endothelin-1 induced contraction [5]: neither anesthetic effected the spontaneous relaxation | attenuation/relaxation of substance P (exogenous tachykinin) contraction [2]: more effective than thiopental | propofol concentration attenuating contractile responses from acetylcholine, histamine, endothelin [12]: 100 to 300 µM | relaxation of histamine induced contraction [6]: neither anesthetic effected the spontaneous relaxation | relaxation of substance P contraction in human tracheal rings [3]: dose-dependently relaxed | calcium sensitivity [13]: not effected | propofol dose attenuating vagal nerve induced bronchospasm [14]: 0.3 mg/min | attenuation/relaxation of NANC contractions (neurally liberated tachykinins) [8]: more effective than thiopental | relaxation of acetylcholine-induced contractions [7]: without effect | relaxation of cholinergic nerve mediated contractions [9]: failed to relax | propofol concentration attenuating bronchoconstriction in dogs [15]: 20 mg/mL | relaxation of NK1-induced contraction [16]: much less effective | relaxation of NK2-induced contraction [17]: significantly relaxed

CCOC(=O)c1cncn1[C@H](C)c1ccccc1 [etomidate]
attenuation/relaxation of substance P (exogenous tachykinin) contraction [2]: failed to relax | attenuation/relaxation of NANC contractions (neurally liberated tachykinins) [8]: failed to relax | relaxation of cholinergic nerve mediated contractions [9]: failed to relax

Substance P (RPKPQQFFGLM-NH2; ends and bridges not checked; UniProt P20366 58-68, looked up) [endogenous tachykinin released in airways by C fibers during irritation of the airway]
contraction of human tracheal rings ([3]; FIG. 5): dose-dependently contracted

CCCCCc1ccccc1CCC(=O)NC1C(=O)N(C)/C(=C\c2ccc(O)cc2)C(=O)NC(CC(C)C)C(=O)NC(Cc2ccccc2)C(=O)NC(C(C)O)C(=O)NC(CC(N)=O)C(=O)NC(CO)C(=O)OC1C (stereo not shown) [FK224] (X1-T[X2]LFTNS; ester 1-C; configuration not given here)
effect on bradykinin induced bronchoconstriction [18]: attenuated bradykinin induced bronchoconstriction
